The NIST ThermoML archive (doi:10.1021/je4000372)

Test: xn = mol fraction of the nth substance listed
Conditions: 101 kPa, Liquid; for viscosity: Capillary tube (Ostwald / Ubbelohde) method; for mass density: Pycnometric method

CCCCOCCOCCO [3,6-dioxa-1-decanol] + OCCNCCO
Conditions | mass density, 293.15 K [kg/m3] | mass density, 303.15 K [kg/m3] | mass density, 313.15 K [kg/m3] | mass density, 323.15 K [kg/m3] | mass density, 333.15 K [kg/m3] | viscosity, 293.15 K [mPa·s] | viscosity, 303.15 K [mPa·s] | viscosity, 313.15 K [mPa·s] | viscosity, 323.15 K [mPa·s] | viscosity, 333.15 K [mPa·s]
x1 = 0.03299 | 1088.3 | 1081.8 | 1075.8 | 1069.4 | 1062.8 | 681.3 | 290.7 | 156.2 | 80.04 | 46.73
x1 = 0.06718 | 1080.7 | 1074.2 | 1068 | 1061.5 | 1054.9 | 550.2 | 231.6 | 122.5 | 66.29 | 38.49
x1 = 0.1026 | 1073.2 | 1066.5 | 1060.3 | 1053.6 | 1046.9 | 425.1 | 189.9 | 98.2 | 53.87 | 31.99
x1 = 0.1394 | 1065.8 | 1058.9 | 1052.5 | 1045.7 | 1038.8 | 321.3 | 150.1 | 81.15 | 43.18 | 26.71
x1 = 0.2174 | 1050.9 | 1043.7 | 1037.1 | 1029.9 | 1022.8 | 191.6 | 96.21 | 53.26 | 30.37 | 19.13
x1 = 0.3018 | 1036.3 | 1028.7 | 1021.9 | 1014.5 | 1007.3 | 114.4 | 59.95 | 34.51 | 20.74 | 13.22
x1 = 0.3933 | 1021.9 | 1014 | 1007 | 999.2 | 991.8 | 65.16 | 37.05 | 22.29 | 14.26 | 9.429
x1 = 0.4929 | 1007.7 | 999.5 | 992.3 | 984.2 | 976.7 | 38.57 | 22.76 | 14.83 | 9.416 | 6.995
x1 = 0.6019 | 993.8 | 985.2 | 977.9 | 969.6 | 961.9 | 23.75 | 14.92 | 10.02 | 7.041 | 5.178
x1 = 0.7008 | 982.3 | 973.5 | 966.1 | 957.6 | 949.8 | 15.75 | 10.43 | 7.262 | 5.199 | 3.927
x1 = 0.7558 | 976.4 | 967.5 | 960 | 951.4 | 943.5 | 12.19 | 8.762 | 6.011 | 4.251 | 3.358
x1 = 0.8059 | 971.2 | 962.2 | 954.7 | 946 | 938.1 | 10.43 | 7.305 | 5.293 | 3.759 | 3.035
x1 = 0.8537 | 966.4 | 957.3 | 949.7 | 940.9 | 933 | 8.982 | 6.312 | 4.629 | 3.407 | 2.756
x1 = 0.9031 | 961.6 | 952.4 | 944.8 | 935.9 | 927.9 | 7.858 | 5.501 | 4.032 | 3.028 | 2.463
x1 = 1 | 952.9 | 943.5 | 935.7 | 926.6 | 918.5 | 5.84 | 4.23 | 3.22 | 2.51 | 2

OCCN(CCO)CCO [triethanolamine] + CCCCOCCOCCO
Conditions | mass density, 293.15 K [kg/m3] | mass density, 303.15 K [kg/m3] | mass density, 313.15 K [kg/m3] | mass density, 323.15 K [kg/m3] | mass density, 333.15 K [kg/m3] | viscosity, 293.15 K [mPa·s] | viscosity, 303.15 K [mPa·s] | viscosity, 313.15 K [mPa·s] | viscosity, 323.15 K [mPa·s] | viscosity, 333.15 K [mPa·s]
x2 = 0 | 1124.3 | 1118.5 | 1112.8 | 1107.1 | 1101.5 | 917.6 | 404.7 | 203.9 | 108.3 | 64.2
x2 = 0.09279 | 1105.1 | 1098.9 | 1093.1 | 1087.2 | 1081.4 | 491.9 | 228.3 | 112.58 | 69.65 | 43.5
x2 = 0.1871 | 1086.3 | 1079.9 | 1073.9 | 1067.5 | 1061.6 | 269.8 | 126.6 | 67.74 | 44.43 | 28.3
x2 = 0.2841 | 1067.9 | 1061 | 1054.8 | 1048.1 | 1041.8 | 153.2 | 69.69 | 40.77 | 28.48 | 18.4
x2 = 0.3804 | 1050.4 | 1043.1 | 1036.7 | 1029.5 | 1022.9 | 85.31 | 41.88 | 25.92 | 17.59 | 12.6
x2 = 0.4787 | 1033.3 | 1025.6 | 1018.9 | 1011.4 | 1004.5 | 50.08 | 26.39 | 16.38 | – | 8.97
x2 = 0.5789 | 1016.5 | 1008.5 | 1001.6 | 993.7 | 986.6 | 30.52 | 17.51 | 10.81 | 8.79 | 6.52
x2 = 0.6816 | 999.9 | 991.7 | 984.6 | 976.4 | 969 | 18.81 | 10.74 | 7.41 | 5.83 | 4.71
x2 = 0.7855 | 983.9 | 975.2 | 967.9 | 959.5 | 951.9 | 12.36 | 8.16 | – | 4.35 | 3.54
x2 = 0.8923 | 968.1 | 959.1 | 951.5 | 942.7 | 934.9 | 8.49 | 6.01 | – | 3.39 | 2.67
